Results as given in ChEMBL document CHEMBL4219199, “Synthesis and evaluation of aminobenzothiazoles as blockers of N- and T-type calcium channels” (Bioorg Med Chem, 2018).

Key:
[1] = target: Voltage-dependent N-type calcium channel subunit alpha-1B (Homo sapiens, UniProt Q00975); experiment: Inhibition of Cav2.2 in human SH-SY5Y cells assessed as decrease in KCl-induced calcium mobilization measured after 600 secs post compound addition and 300 secs post KCl addition in presence of CaV1 blocker nifedipine by calcium 4 dye-based FLIPR assay; type: cell-based
[2] = target: Voltage-dependent T-type calcium channel subunit alpha-1H (Homo sapiens, UniProt O95180); experiment: Inhibition of recombinant human Cav3.2-alpha1 expressed in HEK293T cells assessed as decrease in KCl-induced calcium mobilization measured after 600 secs post compound addition and 300 secs post KCl addition by calcium 4 dye-based FLIPR assay; type: cell-based
[3] = target: Voltage-dependent N-type calcium channel subunit alpha-1B (Rattus norvegicus, UniProt Q02294); experiment: Displacement of [125I]GVIA from rat brain membrane Cav2.2 after 1 hr by gamma counting method
[4] = Metabolic stability in rat plasma assessed as parent compound remaining at 120 uM after 24 hrs by HPLC analysis relative to control; type: ADME, cell-free; settings: read-out: Stability
[5] = Half life in rat plasma; type: ADME, cell-free

Sequence of Voltage-dependent N-type calcium channel subunit alpha-1B (Homo sapiens, UniProt Q00975) (Q00975 whole entry): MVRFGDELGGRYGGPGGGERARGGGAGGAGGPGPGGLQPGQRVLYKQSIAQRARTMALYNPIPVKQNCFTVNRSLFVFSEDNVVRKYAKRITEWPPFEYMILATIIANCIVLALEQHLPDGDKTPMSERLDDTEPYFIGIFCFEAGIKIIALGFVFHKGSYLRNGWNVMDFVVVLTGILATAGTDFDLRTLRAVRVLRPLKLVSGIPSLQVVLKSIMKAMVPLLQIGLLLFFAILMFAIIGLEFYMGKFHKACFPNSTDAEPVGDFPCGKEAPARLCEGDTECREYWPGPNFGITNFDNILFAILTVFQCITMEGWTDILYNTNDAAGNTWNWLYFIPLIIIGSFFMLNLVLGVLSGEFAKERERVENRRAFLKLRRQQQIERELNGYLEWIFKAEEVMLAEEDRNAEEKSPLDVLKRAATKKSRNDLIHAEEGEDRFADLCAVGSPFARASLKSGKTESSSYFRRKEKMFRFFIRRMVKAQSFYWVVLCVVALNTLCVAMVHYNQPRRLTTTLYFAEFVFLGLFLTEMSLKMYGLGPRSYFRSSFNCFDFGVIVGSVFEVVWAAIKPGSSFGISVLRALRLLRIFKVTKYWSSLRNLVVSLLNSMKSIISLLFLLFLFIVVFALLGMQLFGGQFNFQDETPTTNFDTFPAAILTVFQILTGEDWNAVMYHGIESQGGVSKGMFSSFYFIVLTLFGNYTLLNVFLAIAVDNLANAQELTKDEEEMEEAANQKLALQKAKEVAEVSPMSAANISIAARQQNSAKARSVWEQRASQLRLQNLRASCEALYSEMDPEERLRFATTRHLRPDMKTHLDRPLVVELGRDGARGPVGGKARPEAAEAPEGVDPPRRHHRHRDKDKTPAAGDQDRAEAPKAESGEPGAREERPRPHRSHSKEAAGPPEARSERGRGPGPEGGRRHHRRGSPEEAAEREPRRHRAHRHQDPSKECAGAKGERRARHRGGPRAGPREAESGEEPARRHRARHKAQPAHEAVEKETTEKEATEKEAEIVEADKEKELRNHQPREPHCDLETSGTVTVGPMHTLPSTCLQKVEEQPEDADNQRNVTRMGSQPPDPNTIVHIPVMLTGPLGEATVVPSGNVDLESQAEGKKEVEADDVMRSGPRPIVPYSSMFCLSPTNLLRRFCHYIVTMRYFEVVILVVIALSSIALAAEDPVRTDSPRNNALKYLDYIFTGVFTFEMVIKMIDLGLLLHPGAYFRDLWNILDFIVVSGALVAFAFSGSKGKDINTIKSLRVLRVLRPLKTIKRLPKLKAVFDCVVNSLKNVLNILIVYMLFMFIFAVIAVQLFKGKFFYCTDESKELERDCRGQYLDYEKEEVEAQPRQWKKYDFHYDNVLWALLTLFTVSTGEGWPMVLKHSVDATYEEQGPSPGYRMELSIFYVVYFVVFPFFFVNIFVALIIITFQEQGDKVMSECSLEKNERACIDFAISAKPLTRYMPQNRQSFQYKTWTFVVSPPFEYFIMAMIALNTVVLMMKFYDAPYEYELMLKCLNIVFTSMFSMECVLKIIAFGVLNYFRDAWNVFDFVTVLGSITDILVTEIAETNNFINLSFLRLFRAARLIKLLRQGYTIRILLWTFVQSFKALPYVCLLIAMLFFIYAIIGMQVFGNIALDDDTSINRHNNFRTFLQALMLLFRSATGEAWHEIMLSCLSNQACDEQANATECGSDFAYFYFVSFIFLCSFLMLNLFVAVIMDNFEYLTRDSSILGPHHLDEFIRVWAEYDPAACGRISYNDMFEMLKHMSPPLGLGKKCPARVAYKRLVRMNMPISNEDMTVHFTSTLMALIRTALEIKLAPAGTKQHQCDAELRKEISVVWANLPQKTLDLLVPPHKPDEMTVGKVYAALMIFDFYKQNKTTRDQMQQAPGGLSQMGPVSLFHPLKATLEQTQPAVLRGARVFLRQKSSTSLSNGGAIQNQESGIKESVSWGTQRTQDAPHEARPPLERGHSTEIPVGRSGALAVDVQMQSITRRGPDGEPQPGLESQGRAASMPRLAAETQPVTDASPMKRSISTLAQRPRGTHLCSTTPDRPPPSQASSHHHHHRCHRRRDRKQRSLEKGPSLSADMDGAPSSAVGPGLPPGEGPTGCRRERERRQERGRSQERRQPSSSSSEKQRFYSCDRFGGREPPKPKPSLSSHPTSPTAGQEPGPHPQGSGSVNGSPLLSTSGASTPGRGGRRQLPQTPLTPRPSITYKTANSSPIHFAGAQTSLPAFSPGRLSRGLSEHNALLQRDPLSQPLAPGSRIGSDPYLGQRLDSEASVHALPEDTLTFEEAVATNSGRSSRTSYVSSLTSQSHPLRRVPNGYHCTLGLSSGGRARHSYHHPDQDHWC
Sequence of Voltage-dependent T-type calcium channel subunit alpha-1H (O95180 whole entry): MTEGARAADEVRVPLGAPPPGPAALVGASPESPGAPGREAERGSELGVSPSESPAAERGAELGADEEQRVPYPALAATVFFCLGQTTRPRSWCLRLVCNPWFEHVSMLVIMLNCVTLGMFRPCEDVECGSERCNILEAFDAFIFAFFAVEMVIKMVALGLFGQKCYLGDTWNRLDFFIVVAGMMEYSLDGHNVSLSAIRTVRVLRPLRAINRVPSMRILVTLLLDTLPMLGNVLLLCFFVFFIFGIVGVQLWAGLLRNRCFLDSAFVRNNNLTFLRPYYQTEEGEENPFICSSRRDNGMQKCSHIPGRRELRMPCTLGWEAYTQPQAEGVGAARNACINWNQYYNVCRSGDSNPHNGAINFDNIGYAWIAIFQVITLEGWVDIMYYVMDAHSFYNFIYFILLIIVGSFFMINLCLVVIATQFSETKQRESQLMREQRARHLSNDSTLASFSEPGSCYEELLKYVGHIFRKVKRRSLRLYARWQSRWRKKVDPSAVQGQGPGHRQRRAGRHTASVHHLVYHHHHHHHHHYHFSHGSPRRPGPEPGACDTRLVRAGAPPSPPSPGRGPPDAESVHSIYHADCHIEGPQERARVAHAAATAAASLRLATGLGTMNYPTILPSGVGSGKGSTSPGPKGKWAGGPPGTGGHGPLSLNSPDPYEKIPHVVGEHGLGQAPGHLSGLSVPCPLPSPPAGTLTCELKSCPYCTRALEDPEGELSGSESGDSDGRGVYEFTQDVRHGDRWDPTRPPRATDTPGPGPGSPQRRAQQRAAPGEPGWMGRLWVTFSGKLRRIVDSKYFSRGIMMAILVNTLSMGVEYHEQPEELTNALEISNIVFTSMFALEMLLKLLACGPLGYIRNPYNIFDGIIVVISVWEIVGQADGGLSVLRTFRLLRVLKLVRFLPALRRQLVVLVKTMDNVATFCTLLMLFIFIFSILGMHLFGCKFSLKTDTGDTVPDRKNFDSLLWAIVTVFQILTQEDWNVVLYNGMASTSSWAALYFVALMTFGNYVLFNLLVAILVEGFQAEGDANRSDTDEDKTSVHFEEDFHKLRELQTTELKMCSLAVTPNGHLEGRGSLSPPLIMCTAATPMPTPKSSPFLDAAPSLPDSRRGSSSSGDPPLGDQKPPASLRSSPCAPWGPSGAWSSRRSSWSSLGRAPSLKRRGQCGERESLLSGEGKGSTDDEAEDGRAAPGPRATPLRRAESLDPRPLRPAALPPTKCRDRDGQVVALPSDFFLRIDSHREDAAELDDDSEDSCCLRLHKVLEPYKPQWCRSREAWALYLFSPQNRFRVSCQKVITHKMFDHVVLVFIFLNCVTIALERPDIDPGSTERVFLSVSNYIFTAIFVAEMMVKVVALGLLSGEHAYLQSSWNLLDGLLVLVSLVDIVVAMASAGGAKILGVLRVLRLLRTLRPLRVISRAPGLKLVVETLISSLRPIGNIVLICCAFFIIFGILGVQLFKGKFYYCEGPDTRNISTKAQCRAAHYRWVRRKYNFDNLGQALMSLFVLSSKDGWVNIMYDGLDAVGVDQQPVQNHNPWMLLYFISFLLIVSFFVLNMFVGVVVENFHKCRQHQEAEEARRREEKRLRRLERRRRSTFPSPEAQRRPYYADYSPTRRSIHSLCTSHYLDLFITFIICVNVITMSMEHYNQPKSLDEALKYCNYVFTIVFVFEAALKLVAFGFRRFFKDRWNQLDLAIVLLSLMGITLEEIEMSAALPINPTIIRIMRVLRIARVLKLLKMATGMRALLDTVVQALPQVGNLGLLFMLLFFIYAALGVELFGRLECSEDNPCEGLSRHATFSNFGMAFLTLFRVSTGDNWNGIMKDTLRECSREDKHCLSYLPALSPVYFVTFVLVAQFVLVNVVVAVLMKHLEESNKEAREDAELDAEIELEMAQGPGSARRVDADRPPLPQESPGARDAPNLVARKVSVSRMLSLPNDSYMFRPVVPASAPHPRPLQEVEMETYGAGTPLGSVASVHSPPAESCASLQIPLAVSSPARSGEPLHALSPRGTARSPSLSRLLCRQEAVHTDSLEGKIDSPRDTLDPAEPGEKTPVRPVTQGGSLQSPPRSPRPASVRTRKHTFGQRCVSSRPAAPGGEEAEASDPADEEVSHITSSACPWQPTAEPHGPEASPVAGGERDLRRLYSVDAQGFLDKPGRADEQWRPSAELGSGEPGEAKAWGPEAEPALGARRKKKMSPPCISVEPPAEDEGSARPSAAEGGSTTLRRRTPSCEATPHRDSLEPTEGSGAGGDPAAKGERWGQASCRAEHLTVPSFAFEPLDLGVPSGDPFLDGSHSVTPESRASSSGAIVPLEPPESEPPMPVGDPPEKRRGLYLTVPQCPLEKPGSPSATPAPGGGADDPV

SMILES | IC50 [1] | IC50 [2] | EC50 [3] | remaining at 24 h, 120 µM [4] | half-life [5]
NCCCOc1ccc(CNc2nc3ccc(Oc4ccccc4)cc3s2)cc1 | 218 µM | > 1000 µM | – | – | –
NCCCOc1ccc(CN(C(=O)c2ccccc2OCCCN)c2nc3ccc(Oc4ccc(O)cc4)cc3s2)cc1 | – | – | 5.4 µM | – | –
NCCCOc1ccccc1C(=O)N(Cc1ccc(OCCCN=C(N)N)cc1)c1nc2ccc(Oc3ccc(O)cc3)cc2s1 | – | – | 5.7 µM | – | –
CN(Cc1ccc(OCCCN)cc1)c1nc2ccc(Oc3cccc(C(F)(F)F)c3)cc2s1.O=C(O)C(F)(F)F | 77 µM | 239 µM | – | 100% | > 24 h
CN(C)CCCOc1ccc(CN(C)c2nc3ccc(Oc4ccc(C(F)(F)F)cc4)cc3s2)cc1 | 46 µM | 54 µM | – | – | –
CN(Cc1ccc(OCCCNC(=N)N)cc1)c1nc2ccc(Oc3ccc(C#N)cc3)cc2s1 | 143 µM | 153 µM | – | – | –
CN(Cc1ccc(OCCCN)cc1)c1nc2ccc(Oc3ccccc3)cc2s1 | 49 µM | 95 µM | – | – | –
NCCCOc1ccc(CNc2nc3ccc(Oc4cccc(C(F)(F)F)c4)cc3s2)cc1 | 144 µM | 171 µM | – | – | –
CN(Cc1ccc(OCCCNC(=N)N)cc1)c1nc2ccc(Oc3ccccc3)cc2s1 | 113 µM | 498 µM | – | – | –
CN(Cc1ccc(OCCCN)cc1)c1nc2ccc(Oc3ccc(C(F)(F)F)cc3)cc2s1 | 283 µM | 248 µM | – | – | –
CN(Cc1ccc(OCCCN)cc1)c1nc2ccc(Oc3ccc(C#N)cc3)cc2s1 | 65 µM | 328 µM | – | – | –
CN(Cc1ccc(OCCCNC(=N)N)cc1)c1nc2ccc(Oc3ccc(C(F)(F)F)cc3)cc2s1 | 185 µM | 212 µM | – | – | –
N=C(N)NCCCOc1ccc(CNc2nc3ccc(Oc4ccc(O)cc4)cc3s2)cc1 | 253 µM | 319 µM | – | – | –
N=C(N)NCCCOc1ccc(CNc2nc3ccc(Oc4ccc(C(F)(F)F)cc4)cc3s2)cc1.O=C(O)C(F)(F)F | 167 µM | 195 µM | – | 91% | > 24 h
N=C(N)NCCCOc1ccc(CNc2nc3ccc(Oc4ccc(F)cc4)cc3s2)cc1 | 244 µM | 288 µM | – | – | –
NC(N)=NCCCOc1ccc(CNc2nc3ccc(Oc4ccccc4)cc3s2)cc1 | 103 µM | 166 µM | – | – | –
CN(C)CCCOc1ccc(CNc2nc3ccc(Oc4cccc(C(F)(F)F)c4)cc3s2)cc1 | 51 µM | 110 µM | – | – | –

SMILES | IC50 [1] | IC50 [2] | EC50 [3] | remaining at 24 h, 120 µM [4] | half-life [5]
CN(C)CCCOc1ccc(CN(C)c2nc3ccc(Oc4ccc(C#N)cc4)cc3s2)cc1 | 69 µM | 64 µM | – | – | –
CN(Cc1ccc(OCCCN)cc1)c1nc2ccc(Oc3ccc(F)cc3)cc2s1 | 98 µM | 492 µM | – | – | –
N=C(N)NCCCOc1ccc(CNc2nc3ccc(Oc4cccc(C(F)(F)F)c4)cc3s2)cc1 | 130 µM | 270 µM | – | – | –
CN(C)CCCOc1ccc(CNc2nc3ccc(Oc4ccc(C#N)cc4)cc3s2)cc1 | 105 µM | 41 µM | – | – | –
CC(C)[C@H]1c2ccc(F)cc2CC[C@@]1(CCN(C)CCCc1nc2ccccc2[nH]1)OC(=O)C1CC1 | 7 µM | – | – | – | –
CN(Cc1ccc(OCCCN)cc1)c1nc2ccc(Oc3ccc(O)cc3)cc2s1 | 117 µM | 165 µM | – | – | –
NCCCOc1ccc(CNc2nc3ccc(Oc4ccc(O)cc4)cc3s2)cc1 | 205 µM | 300 µM | – | – | –
NCCCOc1ccc(CNc2nc3ccc(Oc4ccc(F)cc4)cc3s2)cc1.O=C(O)C(F)(F)F | 106 µM | 688 µM | – | 75% | > 24 h
N#Cc1ccc(Oc2ccc3nc(NCc4ccc(OCCCNC(=N)N)cc4)sc3c2)cc1 | 368 µM | 326 µM | – | – | –
N#Cc1ccc(Oc2ccc3nc(NCc4ccc(OCCCN)cc4)sc3c2)cc1 | 41 µM | 109 µM | – | – | –
CN(Cc1ccc(OCCCNC(=N)N)cc1)c1nc2ccc(Oc3ccc(O)cc3)cc2s1 | 432 µM | 332 µM | – | – | –
NCCCOc1ccc(CNc2nc3ccc(Oc4ccc(C(F)(F)F)cc4)cc3s2)cc1 | 59 µM | 112 µM | – | – | –
CN(Cc1ccc(OCCCNC(=N)N)cc1)c1nc2ccc(Oc3ccc(F)cc3)cc2s1 | 100 µM | 521 µM | – | – | –
O=C(CC(c1ccccc1)c1ccccc1)N1CCN(C(c2ccccc2)c2ccccc2)CC1 [Z160] | 39 µM | 45 µM | – | – | –
CN(C)CCCOc1ccc(CNc2nc3ccc(Oc4ccc(F)cc4)cc3s2)cc1 | 40 µM | > 1000 µM | – | – | –
CN(Cc1ccc(OCCCNC(=N)N)cc1)c1nc2ccc(Oc3cccc(C(F)(F)F)c3)cc2s1.O=C(O)C(F)(F)F | 202 µM | 771 µM | – | 95% | > 24 h
